What all share (assay type): binding
Assay [1] concerns the target T1, HeLa cell extract proteins (Homo sapiens, UniProt O75340).
T1 construct: endogenous in cells; host or cells: HeLa cell extract

The target in assay [2] is T2, HeLa cell extract proteins (Homo sapiens, UniProt P06576).
T2 construct: endogenous in cells; host or cells: HeLa cell extract

Assay [3] deals with T3, HeLa cell extract proteins (Homo sapiens, UniProt P20073).
T3 construct: endogenous in cells; host or cells: HeLa cell extract
T3 sequence (P20073 1-488): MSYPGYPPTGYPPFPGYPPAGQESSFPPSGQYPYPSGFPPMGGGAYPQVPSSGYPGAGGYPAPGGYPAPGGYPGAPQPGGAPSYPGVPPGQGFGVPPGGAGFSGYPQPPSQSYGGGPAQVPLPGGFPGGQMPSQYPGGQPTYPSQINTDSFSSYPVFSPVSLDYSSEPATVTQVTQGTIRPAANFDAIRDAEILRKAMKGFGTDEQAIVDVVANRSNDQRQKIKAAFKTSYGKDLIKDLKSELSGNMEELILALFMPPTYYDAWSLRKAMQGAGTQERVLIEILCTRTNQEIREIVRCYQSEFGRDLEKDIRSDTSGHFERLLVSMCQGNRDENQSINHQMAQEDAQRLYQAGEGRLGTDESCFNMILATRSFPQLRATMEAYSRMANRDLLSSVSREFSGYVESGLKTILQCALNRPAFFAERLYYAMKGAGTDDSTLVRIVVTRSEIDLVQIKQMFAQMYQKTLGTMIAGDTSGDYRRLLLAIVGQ

Assay [4] concerns the target T4, HeLa cell extract proteins (Homo sapiens, UniProt P25705).
T4 construct: endogenous in cells; host or cells: HeLa cell extract

The target in assay [5] is T5, HeLa cell extract proteins (Homo sapiens, UniProt P27707).
T5 construct: endogenous in cells; host or cells: HeLa cell extract
T5 sequence (P27707 whole entry): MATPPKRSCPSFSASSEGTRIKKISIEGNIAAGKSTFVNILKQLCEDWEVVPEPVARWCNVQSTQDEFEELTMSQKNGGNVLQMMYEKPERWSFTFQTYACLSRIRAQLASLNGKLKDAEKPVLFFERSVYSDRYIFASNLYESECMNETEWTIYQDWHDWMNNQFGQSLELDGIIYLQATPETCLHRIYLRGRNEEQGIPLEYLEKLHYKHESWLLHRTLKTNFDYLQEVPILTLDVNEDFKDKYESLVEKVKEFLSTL

Assay [6] has as its target T6, HeLa cell extract proteins (Homo sapiens, UniProt P30153).
T6 construct: endogenous in cells; host or cells: HeLa cell extract

For assay [7], the target named is T7, HeLa cell extract proteins (Homo sapiens, UniProt P35579).
T7 construct: endogenous in cells; host or cells: HeLa cell extract
T7 sequence (P35579 whole entry): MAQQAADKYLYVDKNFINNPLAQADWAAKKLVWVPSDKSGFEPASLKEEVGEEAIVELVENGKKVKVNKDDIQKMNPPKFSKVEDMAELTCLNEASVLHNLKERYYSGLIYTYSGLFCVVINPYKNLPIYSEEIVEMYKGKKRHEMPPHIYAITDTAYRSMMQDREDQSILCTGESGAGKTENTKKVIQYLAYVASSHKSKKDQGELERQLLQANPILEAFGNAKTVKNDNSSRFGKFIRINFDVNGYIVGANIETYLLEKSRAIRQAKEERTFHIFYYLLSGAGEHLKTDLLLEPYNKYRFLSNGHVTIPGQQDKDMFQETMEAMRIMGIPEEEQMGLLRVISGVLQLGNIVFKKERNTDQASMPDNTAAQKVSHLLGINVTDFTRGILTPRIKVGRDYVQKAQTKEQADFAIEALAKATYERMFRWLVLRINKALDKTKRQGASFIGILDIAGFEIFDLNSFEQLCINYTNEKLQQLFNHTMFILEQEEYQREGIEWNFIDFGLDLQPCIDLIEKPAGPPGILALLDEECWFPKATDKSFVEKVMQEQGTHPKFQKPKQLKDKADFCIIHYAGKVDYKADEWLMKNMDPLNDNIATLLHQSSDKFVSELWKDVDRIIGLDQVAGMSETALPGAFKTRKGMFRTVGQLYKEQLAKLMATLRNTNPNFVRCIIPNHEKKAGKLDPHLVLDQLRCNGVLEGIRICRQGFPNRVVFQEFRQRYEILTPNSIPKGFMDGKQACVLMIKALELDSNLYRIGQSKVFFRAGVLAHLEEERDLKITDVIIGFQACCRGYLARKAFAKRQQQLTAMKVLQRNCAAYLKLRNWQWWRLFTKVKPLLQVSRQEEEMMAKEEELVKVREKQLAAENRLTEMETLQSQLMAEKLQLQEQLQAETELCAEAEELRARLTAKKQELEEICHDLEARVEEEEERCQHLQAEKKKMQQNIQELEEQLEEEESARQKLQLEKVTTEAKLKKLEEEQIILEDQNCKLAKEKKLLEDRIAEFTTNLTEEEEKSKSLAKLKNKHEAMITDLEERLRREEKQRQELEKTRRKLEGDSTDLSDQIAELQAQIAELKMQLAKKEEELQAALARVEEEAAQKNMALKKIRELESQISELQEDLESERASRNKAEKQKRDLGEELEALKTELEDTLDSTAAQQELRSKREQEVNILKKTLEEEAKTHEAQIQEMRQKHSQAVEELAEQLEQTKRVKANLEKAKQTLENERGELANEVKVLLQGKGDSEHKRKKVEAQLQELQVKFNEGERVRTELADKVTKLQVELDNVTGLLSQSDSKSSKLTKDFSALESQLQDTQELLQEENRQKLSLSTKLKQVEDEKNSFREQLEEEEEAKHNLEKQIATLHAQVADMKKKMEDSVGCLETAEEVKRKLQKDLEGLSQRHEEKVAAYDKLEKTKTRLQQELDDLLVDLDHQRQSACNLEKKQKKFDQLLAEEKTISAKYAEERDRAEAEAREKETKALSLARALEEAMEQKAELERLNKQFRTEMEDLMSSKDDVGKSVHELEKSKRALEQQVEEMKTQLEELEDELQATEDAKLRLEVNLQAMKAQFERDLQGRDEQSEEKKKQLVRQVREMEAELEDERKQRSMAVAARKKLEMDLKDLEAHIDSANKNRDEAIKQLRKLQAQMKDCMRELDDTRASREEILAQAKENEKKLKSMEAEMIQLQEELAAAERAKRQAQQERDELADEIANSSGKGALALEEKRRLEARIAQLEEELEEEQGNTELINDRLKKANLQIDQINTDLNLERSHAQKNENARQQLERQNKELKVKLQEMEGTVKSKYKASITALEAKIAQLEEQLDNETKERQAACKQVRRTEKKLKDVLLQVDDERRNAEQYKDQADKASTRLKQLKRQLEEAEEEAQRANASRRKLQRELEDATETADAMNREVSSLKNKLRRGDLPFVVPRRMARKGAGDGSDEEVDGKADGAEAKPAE

For assay [8], the target named is T8, HeLa cell extract proteins (Homo sapiens, UniProt P53992).
T8 construct: endogenous in cells; host or cells: HeLa cell extract
T8 sequence (P53992 1-1094): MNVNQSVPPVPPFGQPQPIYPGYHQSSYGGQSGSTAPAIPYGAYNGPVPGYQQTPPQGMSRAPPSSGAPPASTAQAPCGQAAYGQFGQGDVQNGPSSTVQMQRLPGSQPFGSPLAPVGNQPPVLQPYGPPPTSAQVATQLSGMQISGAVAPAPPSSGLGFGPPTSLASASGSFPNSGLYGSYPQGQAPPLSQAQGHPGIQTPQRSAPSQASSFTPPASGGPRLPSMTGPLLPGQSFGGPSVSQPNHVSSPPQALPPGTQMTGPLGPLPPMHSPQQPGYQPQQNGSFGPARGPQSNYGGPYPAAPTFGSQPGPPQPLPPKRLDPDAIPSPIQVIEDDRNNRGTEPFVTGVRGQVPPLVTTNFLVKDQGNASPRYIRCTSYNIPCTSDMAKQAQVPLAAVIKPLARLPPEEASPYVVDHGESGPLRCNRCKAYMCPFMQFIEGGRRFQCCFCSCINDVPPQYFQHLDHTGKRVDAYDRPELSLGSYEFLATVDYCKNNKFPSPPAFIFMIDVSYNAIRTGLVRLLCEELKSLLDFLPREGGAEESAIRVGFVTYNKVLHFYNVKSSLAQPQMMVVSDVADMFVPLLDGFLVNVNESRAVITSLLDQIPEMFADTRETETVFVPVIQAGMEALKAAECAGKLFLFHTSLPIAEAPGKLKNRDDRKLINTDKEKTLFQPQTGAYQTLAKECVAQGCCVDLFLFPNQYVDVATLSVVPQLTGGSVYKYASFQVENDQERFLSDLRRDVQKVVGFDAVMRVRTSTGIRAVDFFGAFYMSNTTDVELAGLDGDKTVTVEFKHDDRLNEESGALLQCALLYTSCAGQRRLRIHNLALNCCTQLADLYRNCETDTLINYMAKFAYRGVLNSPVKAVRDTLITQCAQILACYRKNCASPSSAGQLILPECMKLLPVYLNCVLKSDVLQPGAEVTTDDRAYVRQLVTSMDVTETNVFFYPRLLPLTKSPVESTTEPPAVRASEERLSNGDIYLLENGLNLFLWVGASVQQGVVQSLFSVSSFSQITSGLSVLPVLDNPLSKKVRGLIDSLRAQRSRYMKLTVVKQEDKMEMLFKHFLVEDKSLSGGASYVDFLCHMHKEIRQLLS

Assay [9] deals with T9, HeLa cell extract proteins (Homo sapiens, UniProt P60228).
T9 construct: endogenous in cells; host or cells: HeLa cell extract
T9 sequence (P60228 whole entry): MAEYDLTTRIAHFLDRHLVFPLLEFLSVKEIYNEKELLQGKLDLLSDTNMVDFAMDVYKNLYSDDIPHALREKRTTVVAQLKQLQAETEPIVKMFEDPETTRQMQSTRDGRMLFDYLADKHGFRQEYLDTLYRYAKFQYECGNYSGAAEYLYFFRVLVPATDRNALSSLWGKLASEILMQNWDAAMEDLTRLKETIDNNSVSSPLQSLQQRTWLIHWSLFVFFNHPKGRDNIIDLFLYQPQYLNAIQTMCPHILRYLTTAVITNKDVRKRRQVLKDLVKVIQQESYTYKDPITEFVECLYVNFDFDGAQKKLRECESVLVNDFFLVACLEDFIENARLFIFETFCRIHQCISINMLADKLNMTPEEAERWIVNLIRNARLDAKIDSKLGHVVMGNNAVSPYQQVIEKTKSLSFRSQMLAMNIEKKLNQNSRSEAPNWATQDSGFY

Assay [10] has as its target T10, HeLa cell extract proteins (Homo sapiens, UniProt P62191).
T10 construct: endogenous in cells; host or cells: HeLa cell extract

Assay [11] concerns the target T11, HeLa cell extract proteins (Homo sapiens, UniProt Q16531).
T11 construct: endogenous in cells; host or cells: HeLa cell extract

Assay [12] deals with T12, HeLa cell extract proteins (Homo sapiens, UniProt Q8IYS1).
T12 construct: endogenous in cells; host or cells: HeLa cell extract
T12 sequence (Q8IYS1 1-436): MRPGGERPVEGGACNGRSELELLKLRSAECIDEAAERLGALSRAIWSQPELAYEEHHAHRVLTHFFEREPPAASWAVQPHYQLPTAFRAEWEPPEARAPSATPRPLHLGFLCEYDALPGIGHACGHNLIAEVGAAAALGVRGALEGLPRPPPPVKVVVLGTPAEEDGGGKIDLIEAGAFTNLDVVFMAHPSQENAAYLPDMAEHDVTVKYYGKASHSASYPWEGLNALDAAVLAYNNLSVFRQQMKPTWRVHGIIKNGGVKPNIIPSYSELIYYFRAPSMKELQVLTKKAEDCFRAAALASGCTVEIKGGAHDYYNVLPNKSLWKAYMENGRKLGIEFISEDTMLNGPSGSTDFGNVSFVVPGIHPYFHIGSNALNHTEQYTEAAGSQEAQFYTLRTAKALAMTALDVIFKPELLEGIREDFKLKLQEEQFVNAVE

Assay [13] has as its target T13, HeLa cell extract proteins (Homo sapiens, UniProt Q9NU22).
T13 construct: endogenous in cells; host or cells: HeLa cell extract

The mark [14] stands for this setting: HeLa, protein PDCD6 (PROGRAMMED CELL DEATH PROTEIN 6).

Like-named read-outs stand apart in the source and are kept apart here.

T4 sequence (P25705 44-553): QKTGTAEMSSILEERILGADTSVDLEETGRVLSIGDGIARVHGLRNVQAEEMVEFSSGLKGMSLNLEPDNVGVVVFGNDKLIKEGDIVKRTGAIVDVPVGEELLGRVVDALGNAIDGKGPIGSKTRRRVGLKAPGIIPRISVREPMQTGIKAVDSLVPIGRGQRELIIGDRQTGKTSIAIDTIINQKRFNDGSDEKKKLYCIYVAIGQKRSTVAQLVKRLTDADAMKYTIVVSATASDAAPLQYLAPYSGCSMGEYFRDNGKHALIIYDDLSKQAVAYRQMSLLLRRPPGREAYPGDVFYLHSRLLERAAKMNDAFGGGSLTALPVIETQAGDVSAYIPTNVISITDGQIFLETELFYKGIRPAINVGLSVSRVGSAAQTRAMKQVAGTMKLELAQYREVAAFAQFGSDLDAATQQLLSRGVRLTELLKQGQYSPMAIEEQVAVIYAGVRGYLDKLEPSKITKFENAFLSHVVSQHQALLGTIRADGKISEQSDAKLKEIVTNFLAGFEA
T1 sequence (O75340 whole entry): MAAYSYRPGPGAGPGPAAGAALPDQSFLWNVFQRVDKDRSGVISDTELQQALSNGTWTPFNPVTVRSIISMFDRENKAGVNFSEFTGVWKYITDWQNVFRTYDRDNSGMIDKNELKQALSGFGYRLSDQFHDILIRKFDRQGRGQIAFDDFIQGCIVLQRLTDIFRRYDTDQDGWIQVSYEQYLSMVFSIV
T11 sequence (Q16531 whole entry): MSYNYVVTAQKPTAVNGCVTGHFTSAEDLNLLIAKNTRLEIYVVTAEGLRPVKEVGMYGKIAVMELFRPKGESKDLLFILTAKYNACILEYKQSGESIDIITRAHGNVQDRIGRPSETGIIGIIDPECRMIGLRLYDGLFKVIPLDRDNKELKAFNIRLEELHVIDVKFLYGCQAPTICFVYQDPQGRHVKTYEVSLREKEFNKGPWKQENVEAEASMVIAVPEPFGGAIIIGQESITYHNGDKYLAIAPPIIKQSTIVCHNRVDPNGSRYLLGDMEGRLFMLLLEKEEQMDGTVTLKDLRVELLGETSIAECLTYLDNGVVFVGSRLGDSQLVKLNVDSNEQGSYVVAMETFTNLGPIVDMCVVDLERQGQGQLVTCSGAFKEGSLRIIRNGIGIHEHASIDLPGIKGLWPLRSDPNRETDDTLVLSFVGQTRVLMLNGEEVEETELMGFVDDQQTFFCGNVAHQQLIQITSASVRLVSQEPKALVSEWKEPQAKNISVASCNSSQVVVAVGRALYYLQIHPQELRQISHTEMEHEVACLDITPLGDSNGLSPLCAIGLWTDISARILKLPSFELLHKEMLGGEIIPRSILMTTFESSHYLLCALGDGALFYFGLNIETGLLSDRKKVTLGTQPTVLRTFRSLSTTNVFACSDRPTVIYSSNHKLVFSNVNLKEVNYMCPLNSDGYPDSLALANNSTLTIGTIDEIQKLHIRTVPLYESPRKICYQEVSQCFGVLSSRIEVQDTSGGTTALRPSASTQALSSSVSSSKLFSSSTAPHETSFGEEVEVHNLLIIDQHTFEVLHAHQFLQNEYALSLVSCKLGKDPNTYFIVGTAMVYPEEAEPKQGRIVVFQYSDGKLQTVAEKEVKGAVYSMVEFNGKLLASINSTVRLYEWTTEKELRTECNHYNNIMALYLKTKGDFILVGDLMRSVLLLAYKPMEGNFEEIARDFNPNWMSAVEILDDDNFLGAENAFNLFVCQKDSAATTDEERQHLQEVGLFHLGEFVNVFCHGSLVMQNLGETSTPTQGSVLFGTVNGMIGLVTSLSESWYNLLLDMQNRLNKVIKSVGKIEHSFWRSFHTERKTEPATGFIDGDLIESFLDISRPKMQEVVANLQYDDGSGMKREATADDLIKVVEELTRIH
T2 sequence (P06576 48-529): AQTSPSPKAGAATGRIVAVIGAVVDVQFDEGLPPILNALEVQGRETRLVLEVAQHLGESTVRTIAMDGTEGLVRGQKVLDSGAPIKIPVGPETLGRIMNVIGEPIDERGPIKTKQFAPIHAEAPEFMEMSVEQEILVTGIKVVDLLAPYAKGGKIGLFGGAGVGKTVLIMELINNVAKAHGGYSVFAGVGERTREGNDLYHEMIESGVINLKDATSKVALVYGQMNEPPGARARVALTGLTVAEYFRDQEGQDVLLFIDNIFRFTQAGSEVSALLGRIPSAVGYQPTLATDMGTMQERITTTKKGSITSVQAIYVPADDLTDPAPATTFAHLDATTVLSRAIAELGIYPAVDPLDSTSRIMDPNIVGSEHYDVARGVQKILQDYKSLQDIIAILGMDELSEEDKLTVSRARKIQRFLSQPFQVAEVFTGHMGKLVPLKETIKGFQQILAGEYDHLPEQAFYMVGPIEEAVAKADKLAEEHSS

Turning to `Nc1nc2cccc(-c3ccccc3)c2n1Cc1ccc(Cl)c(Cl)c1` [compound 3], the “fold changes relative to vehicle control” value in assay [1] (HeLa, protein PDCD6) is listed as 1.07; in assay [2] (protein ATP5B, HeLa), 0.96; in [3] (protein ANXA7, HeLa), 0.91; in assay [4] (HeLa, protein ATP5A1), 0.87; in [5] (protein DCK, HeLa), 1.01; in assay [6] (HeLa, protein PPP2R1A) it was 0.88. The “fold changes relative to vehicle control” value in assay [7] (captured protein MYH9, HeLa) turned out to be 0.85; in assay [8] (protein SEC24C, HeLa), 1.28; in [9] (protein EIF3E, HeLa), 0.99; in [10] (protein PSMC1, HeLa), 1; in assay [11] (HeLa, protein DDB1), 0.87; in assay [12] (captured protein PM20D2, HeLa), 1.1. For the same compound, in [13] (captured protein MDN1, HeLa), the “fold changes relative to vehicle control” value is recorded as 1.17.
For `NCCOCCOCC(=O)Nc1nc2ncc(CNc3ccc(C(=O)NC(CCC(=O)O)C(=O)O)cc3)nc2c(=O)[nH]1` (stereo not drawn) [compound 6], the “fold changes relative to vehicle control” value in [1] (setting [14]) is recorded as 0.98; in [2] (HeLa, captured protein ATP5B) it was 0.96; in assay [3] (HeLa, protein ANXA7) it was 1.13; in [4] (HeLa, captured protein ATP5A1) it was 0.95; in [5] (HeLa, protein DCK (DEOXYCYTIDINE KINASE)), 0.93; in assay [6] (HeLa, protein PPP2R1A), 0.86. Further, the “fold changes relative to vehicle control” value in [7] (HeLa, protein MYH9 (MYOSIN-9)) came out at 1.44; in assay [8] (HeLa, protein SEC24C), 0.92; in [9] (HeLa, protein EIF3E), 1.11; in assay [10] (HeLa, protein PSMC1), 0.95; in assay [11] (HeLa, protein DDB1), 0.99; in [12] (HeLa, protein PM20D2) it was 1.05. In addition, the “fold changes relative to vehicle control” value in [13] (HeLa, protein MDN1) turned out to be 1.12.
Take `Nc1nc2[nH]cc(CCc3ccc(C(=O)N[C@@H](CCC(=O)O)C(=O)O)cc3)c2c(=O)[nH]1` [PTX, pemetrexed]: the “fold changes relative to vehicle control” value amounted to 1.06 in assay [1]; 1.07 in assay [2]; 1.02 in assay [3]; 0.94 in assay [4]; 1 in assay [5]; 0.87 in assay [6]. Besides, the “fold changes relative to vehicle control” value in assay [7] came to 0.99; in [8] it was 0.96; in assay [9] it was 1.04; in assay [10] it was 0.92; in assay [11], 0.9; in [12], 1. Also, the “fold changes relative to vehicle control” value in [13] was found to be 0.94.
With `Nc1nc2c(c(=O)[nH]1)N(C=O)C(CNc1ccc(C(=O)N[C@@H](CCC(=O)O)C(=O)O)cc1)CN2` (stereo partly drawn) [LEU, leucovorin], the “fold changes relative to vehicle control” value in assay [1] (setting [14]) is listed as 1.14; in [2] (HeLa, captured protein ATP5B), 1.09; in [3] (HeLa, protein ANXA7), 0.98; in assay [4] (HeLa, captured protein ATP5A1), 0.99; in assay [5] (HeLa, protein DCK (DEO[…])), 1.12; in [6] (HeLa, protein PPP2R1A) it was 0.97. Moreover, the “fold changes relative to vehicle control” value in [7] (HeLa, protein MYH9 (MYOSIN-9)) amounted to 0.97; in assay [8] (HeLa, protein SEC24C) it was 0.98; in assay [9] (HeLa, protein EIF3E), 1.15; in [10] (HeLa, protein PSMC1) it was 1; in [11] (HeLa, protein DDB1), 0.95; in assay [12] (HeLa, protein PM20D2), 0.9. In addition, the “fold changes relative to vehicle control” value in assay [13] (HeLa, protein MDN1) is recorded as 0.96.
`CCCCCCOc1ccc(Cc2cnc(N)nc2N)cc1` [compound 1]: the “fold changes relative to vehicle control” value stood at 1.03 in [1] (HeLa, protein PDCD6); 1.02 in assay [2] (protein ATP5B, HeLa); 1.06 in [3] (protein ANXA7, HeLa); 1 in assay [4] (HeLa, protein ATP5A1); 0.98 in assay [5] (protein DCK, HeLa); 0.95 in [6] (HeLa, protein PPP2R1A). In addition, the “fold changes relative to vehicle control” value stood at 0.91 in assay [7] (captured protein MYH9, HeLa); 1.03 in [8] (protein SEC24C, HeLa); 1.18 in [9] (protein EIF3E, HeLa); 0.98 in assay [10] (protein PSMC1, HeLa); 0.9 in [11] (HeLa, protein DDB1); 1.09 in [12] (captured protein PM20D2, HeLa). The “fold changes relative to vehicle control” value in [13] (captured protein MDN1, HeLa) was determined as 0.94.
In the case of `NCCCNc1ccc(C(=O)NC(CCC(=O)O)C(=O)O)cc1` (stereo not drawn) [compound 7], the “fold changes relative to vehicle control” value was found to be 1.05 in assay [1] (setting [14]); 1.04 in assay [2] (HeLa, captured protein ATP5B); 0.83 in [3] (HeLa, protein ANXA7); 0.99 in [4] (HeLa, captured protein ATP5A1); 1.04 in assay [5] (HeLa, protein DCK (DEO[…])); 0.95 in assay [6] (HeLa, protein PPP2R1A). Moreover, the “fold changes relative to vehicle control” value in assay [7] (HeLa, protein MYH9 (MYOSIN-9)) came to 0.9; in assay [8] (HeLa, protein SEC24C), 1.14; in assay [9] (HeLa, protein EIF3E), 1.01; in assay [10] (HeLa, protein PSMC1) it was 0.85; in assay [11] (HeLa, protein DDB1), 0.96; in [12] (HeLa, protein PM20D2), 0.89. Besides, the “fold changes relative to vehicle control” value in assay [13] (HeLa, protein MDN1) is given as 1.

For the origin of these results see article PMC6199744, “Development of Chemical Proteomics for the Folateome and Analysis of the Kinetoplastid Folateome” (ACS Infectious Diseases, 2018).
